From ChEMBL document CHEMBL1143510, “Synthesis and in vitro antitumor activity of 4(3H)-quinazolinone derivatives with dithiocarbamate side chains” (Bioorg Med Chem Lett, 2005)
pIC50: −log10 of the molar value.

tested on: K562; assay: In vitro cytotoxic concentration measured against human myelogenous leukemia K562 cells; type: functional, cell-based

How did the pIC50 turn out when `CCOC(=O)C1(c2ccccc2)CCN(C(=S)SCc2ccc3nc(C)nc(O)c3c2)CC1` was run?
Its pIC50 is 5.06.

How did the pIC50 turn out when `Cc1nc(O)c2cc(CS/C(S)=N/CCCN(C)C)ccc2n1` was run?
Its pIC50 is 4.59.

With `Cc1nc(O)c2cc(CSC(=S)N3CCCCC3)ccc2n1` as the compound, how does the pIC50 read?
Its pIC50 is 4.95.

With `Cc1nc(O)c2cc(CSC(=S)N3CCN(C(c4ccc(F)cc4)c4ccc(F)cc4)CC3)ccc2n1` as the compound, how does the pIC50 read?
The pIC50 was 5.37.

`CN(Cc1cnc2nc(N)nc(N)c2n1)c1ccc(C(=O)N[C@@H](CCC(=O)O)C(=O)O)cc1` [METHOTREXATE] was tested. Which pIC50 did it give?
The pIC50 was 3.38.

How did the pIC50 turn out when `Cc1nc(O)c2cc(CS/C(S)=N/Cc3ccco3)ccc2n1` was run?
The pIC50 was 5.68.

How did the pIC50 turn out when `CSC(=S)NCc1c[nH]c2ccccc12` [BRASSININ] was run?
Its pIC50 is 3.89.

With `Cc1nc(O)c2cc(CSC(=S)N3CCN(c4ccc(F)cc4)CC3)ccc2n1` as the compound, how does the pIC50 read?
Its pIC50 is 6.30.

How did the pIC50 turn out when `Cc1nc(O)c2cc(CS/C(S)=N/Cc3ccccc3)ccc2n1` was run?
Its pIC50 is 5.40.

`Cc1nc(O)c2cc(CSC(=S)N(C3CCCCC3)C3CCCCC3)ccc2n1` was tested. Which pIC50 did it give?
Its pIC50 is 5.12.

How did the pIC50 turn out when `Cc1nc(O)c2cc(CSC(=S)N3CCN(C)CC3)ccc2n1` was run?
Its pIC50 is 4.97.

With `Cc1nc(O)c2cc(CS/C(S)=N/C3CCCCC3)ccc2n1` as the compound, how does the pIC50 read?
Its pIC50 is 4.51.

`Cc1nc(O)c2cc(CSC(=S)N3CC(C)OC(C)C3)ccc2n1` (centres undefined) was tested. Which pIC50 did it give?
The pIC50 was 5.43.

`Cc1nc(O)c2cc(CSC(=S)N3CCOCC3)ccc2n1` was tested. Which pIC50 did it give?
Its pIC50 is 5.14.

How did the pIC50 turn out when `CCN(CC)C(=S)SCc1ccc2nc(C)nc(O)c2c1` was run?
The pIC50 was 5.36.

`Cc1nc(O)c2cc(CSC(=S)N3CCN(Cc4ccccc4)CC3)ccc2n1` was tested. Which pIC50 did it give?
The pIC50 was 5.13.

`CCOC(=O)C1CSCN1C(=S)SCc1ccc2nc(C)nc(O)c2c1` (centres undefined) was tested. Which pIC50 did it give?
Its pIC50 is 4.96.

`Cc1nc(O)c2cc(CS/C(S)=N/C34CC5CC(CC(C5)C3)C4)ccc2n1` was tested. Which pIC50 did it give?
The pIC50 was 4.51.

`Cc1nc(O)c2cc(CSC(=S)N3CCc4ccccc4C3)ccc2n1` was tested. Which pIC50 did it give?
Its pIC50 is 5.48.
